Where two headings read alike, the source gives them in different places.

Consider two molecules from patent publication US7618626B2, “Combination treatment for non-hematologic malignancies” (Pfizer Inc, priority 2004, dated 2009).

Assay [1] has as its system hormone-receptor-positive breast cancer. To be noted: cited from earlier work.
The subject of assay [2] is tumors of the transfectant IGF-1R over-expressing NIH-3T3 cell line. As to the kind of experiment: 3T3-IGF-1R tumor growth in vivo (athymic mice, intraperitoneal administration). To be noted: FIG. 5. The protocol: When incubated with cells, fully human monoclonal antibodies that are highly specific and potent inhibitors of IGF-1-induced receptor autophosphorylation induced down-regulation of IGF-1R by receptor internalization. […] The serum concentration of anti-IGF-1R antibodies that led to 50% growth inhibition was 20 μg/ml at Day 1, and 13 μg/ml at Day 9. Similar anti-tumor studies were extended to human tumor xenograft models. As a single agent, anti-IGF-1R antibodies inhibited the growth of several xenograft models including breast, lung and colorectal carcinomas.

Assay [3] addresses T1, IGF-1R (Homo sapiens, UniProt P08069).
T1 construct: expressed in transfected cells; host or cells: NIH-3T3 (mouse fibroblast) transfectant, grown as tumors in athymic mice
Briefly: IGF-1R phosphotyrosine signal in 3T3-IGF-1R tumors. In kind it is in vivo. The conditions noted are these: FIG. 4.

For the molecule `CC/C(=C(\c1ccccc1)c1ccc(OCCN(C)C)cc1)c1ccccc1` [Tamoxifen], the reduction of recurrence in assay [1] (post-menopausal women) is 40-50%; in assay [1] (pre-menopausal women) it was 30-50%.

B1: 2.13.2: fully human anti-IGF-1R monoclonal antibody; hybridoma ATCC PTA-2788 (antibody)
heavy: EVQLLESGGGLVQPGGSLRLSCTASGFTFSSYAMNWVRQAPGKGLEWVSAISGSGGTTFYADSVKGRFTISRDNSRTTLYLQMNSLRAEDTAVYYCAKDLGWSDSYYYYYGMDVWGQGTTVTVSSASTKGPSVFPLAPCSRSTSESTAALGCLVKDYFPEPVTVSWNSGALTSGVHTFPAVLQSSGLYSLSSVVTVPSSNFGTQTYTCNVDHKPSNTKVDKTVERKCCVECPPCPAPPVAGPSVFLFPPKPKDTLMISRTPEVTCVVVDVSHEDPEVQFNWYVDGVEVHNAKTKPREEQFNSTFRVVSVLTVVHQDWLNGKEYKCKVSNKGLPAPIEKTISKTKGQPREPQVYTLPPSREEMTKNQVSLTCLVKGFYPSDIAVEWESNGQPENNYKTTPPMLDSDGSFFLYSKLTVDKSRWQQGNVFSCSVMHEALHNHYTQKSLSLSPGK
light: DIQMTQFPSSLSASVGDRVTITCRASQGIRNDLGWYQQKPGKAPKRLIYAASRLHRGVPSRFSGSGSGTEFTLTISSLQPEDFATYYCLQHNSYPCSFGQGTKLEIKRTVAAPSVFIFPPSDEQLKSGTASVVCLLNNFYPREAKVQWKVDNALQSGNSQESVTEQDSKDSTYSLSSTLTLSKADYEKHKVYACEVTHQGLSSPVTKSFNRGEC
For the molecule B1, the “3T3-IGF-1R tumor growth in vivo” value in assay [2] is on record as “inhibits 3T3-IGF-1R tumor growth in vivo”. Moreover, in assay [3], the “IGF-1R phosphotyrosine signal in 3T3-IGF-1R tumors” value is recorded as “reduce IGF-1R phosphotyrosine signal”.
